# Experimental data taken from patent US9636376B2, “Stable compositions of peptide epoxy ketones” (priority 2012, dated 2017).
# Legend:
# [1] = Effect of pH on saturation solubility of carfilzomib; type: physicochemical; details: aqueous buffer, thermodynamic from solid
# From the text: For instance, a buffer is typically used in the liquid pharmaceutical compositions of the invention to control the pH.
# [2] = system: solid and hematologic tumor cells; details: cited from earlier work
# proteasome = details: blood and tissue; cited from earlier work
# [3] = system: models of multiple myeloma, hematologic, and solid tumors; details: cited from earlier work
compound,measurement,setting,value
"CC(C)C[C@H](NC(=O)[C@H](CCc1ccccc1)NC(=O)CN1CCOCC1)C(=O)N[C@@H](Cc1ccccc1)C(=O)N[C@@H](CC(C)C)C(=O)[C@@]1(C)CO1 [Carfilzomib, (2S)—N—((S)-1-((S)-4-methyl-1-((R)-2-methyloxiran-2-yl)-1-oxopentan-2-ylcarbamoyl)-2-phenylethyl)-2-((S)-2-(2-morpholinoacetamido)-4-phenylbutanamido)-4-methylpentanamide]",solubility,"[1]; 1% L-cysteine solution, pH 1.7 (1% L-Cysteine)",459 µg/mL
same,solubility,[1]; pH 3.5 (15 mM Acetate Buffer),125 µg/mL
same,solubility,[1]; pH 5.0 (15 mM Citrate Buffer),9 µg/mL
same,solubility,[1]; pH 7.0 (15 mM Phosphate Buffer),5 µg/mL
same,Activities in vitro in tumor cells,[2],antiproliferative and proapoptotic activities
same,Effect on proteasome activity,proteasome,inhibit proteasome activity
same,Effect on tumor growth,[3],delay tumor growth
